| melting point | Structure (SMILES) |
| --- | --- |
| 221 to 224 °C | Cc1cc(NC2=NCCN2)n(-c2cccc3ccccc23)n1 |
| 88 °C | COc1ccccc1S(=O)(=O)OCC(=O)c1ccccc1 |
| 167 to 168 °C | CN1CC(c2cc(CCc3ccc(F)cc3)ccn2)=C(O)C1=O |
| 207 to 211 °C | Cc1noc(NS(=O)(=O)c2ccc(NC(=O)c3ccccc3)cc2-c2ccc(CC(C)C)cc2)c1C |
| 165 to 166 °C | O=C(O)COc1cccc2c1CCc1sc(OCCC(c3ccccc3)c3ccccc3)nc1-2 |
| 167 °C | O=C1N(c2cc(Cl)nc(Cl)c2)C(=O)[C@]2(Cc3ccc(OC(F)(F)F)cc3)C[C@@H](c3cc[nH]c3C(=O)C(F)(F)F)CN12 |
| 184 to 187 °C | CN1C(=O)CC[C@]2(C)c3ccc(-c4ccc(O)c(C=O)c4)cc3CC[C@@H]12 |
| 195 to 197 °C | O=C(CN1CC(S(=O)Cc2ccc(C(=O)O)cc2)C1=O)NCCCCCCc1ccc(Cl)cc1 (configuration not stated) |
| 137 to 139 °C | O=c1c(Cl)c(OCc2ccc(F)cc2F)ccn1Cc1ccc2c(c1)CCN2 |
| 131 °C | CC(C)CCCNC1c2ccccc2C(=O)N1c1ccc2ccc(Cl)nc2n1 (configuration not stated) |
| 116 °C | Cc1cc(-n2ccnc2)c2cccc(OCc3c(Cl)ccc(S(=O)(=O)N4CCC[C@H]4C(=O)NCc4ccccc4)c3Cl)c2n1 |
| 138 to 139 °C | COC(Cc1c(Br)cc(Br)c(C(N)=O)c1Br)C(=O)O (configuration not stated) |
| 228 °C | CC(C)(C)c1ccc2c(c1)C(=O)c1ccc(-c3nnn[nH]3)cc1S2(=O)=O |
| 168 to 170 °C | CC(=O)N1c2c(ccn3c(C)c(C)nc23)C(=O)[C@H](OC(=O)C(C)(C)C)[C@H]1c1ccccc1 |
| 76 °C | O=[N+]([O-])c1ccccc1CCN1CCN(c2ccccc2)CC1 |
| 243 to 245 °C | Cc1cc2c(cc1C(=O)N=C(N)N)S(=O)(=O)CC2(C)O (configuration not stated) |
| 56 °C | COC(=O)c1ccc(Cl)c(C2(O)C(=O)N(Cc3ccc(OC)cc3OC)c3ccc(Cl)cc32)c1 (configuration not stated) |
| 149 °C | COc1cccc(C=C2SC(=S)N(CC(=O)O)C2=O)c1-c1cc2c(cc1C)C(C)(C)CCC2(C)C |
| 177 to 179 °C | CC(=O)Nc1c(C(=O)c2ccccc2)[nH]c2cc(C(F)(F)F)ccc12 |
| 216 to 218 °C | O=P(c1ccccc1)(c1ccccc1)c1cc(O)ccc1O |
| 264 to 265 °C | Cn1c(C(F)(F)F)cc(=O)n(-c2ccc3snc(C(C)(C)C(=O)NS(C)(=O)=O)c3c2)c1=O |
| 163 to 166 °C | Nc1sc(-c2cc(F)cc(F)c2)c(CN(C2CCCCC2)C2CCCCC2)c1C(=O)c1ccc(Cl)cc1 |
| 74 to 76 °C | CCOc1ccc(Br)c(O)c1C(=O)NCC1CCCN1CC (configuration not stated) |
| 190 °C | CC1=C(C(=O)OC(C)(C)C)C(c2cccc(Cl)c2)C(C(=O)OC(C)(C)C)=C(C)N1 |

| melting point | Structure (SMILES) |
| --- | --- |
| 168 to 169 °C | O=C(CCCCCCC1=CC(O)CC1=O)Oc1ccc(NC(=O)c2ccccc2)cc1 (configuration not stated) |
| 116 to 117 °C | CCOC(=O)CCCCn1c(=O)[nH]c2ccsc2c1=O |
| 91 to 92 °C | COCCNC(=O)c1cccc(-c2cccc3oc(Cc4cccc(C(F)(F)F)c4)cc23)c1 |
| 145 to 146 °C | COC(=O)C1c2c(C)c(O)c(C)c(C)c2OC1(C)C (configuration not stated) |
| 169 to 171 °C | COc1cc(-c2oc3cc(I)ccc3c(=O)c2O)cc(OC)c1OCc1ccccc1 |
| 256 to 257 °C | CN(C)c1ccc2cc(-c3ccnc(N)c3C#N)ccc2c1 |
| 117 to 119 °C | CCOC(=O)C1=C(COCC(C)=O)NC(C)=C(C(=O)OC)C1c1cccc(Cl)c1Cl (configuration not stated) |
| > 300 °C | O=C(O)c1ccc(-c2nc(-c3ccc(Br)cc3)cs2)cc1 |
| 185 to 186 °C | O=c1[nH]c2cc(F)c(NCC3CCCCO3)cc2o1 (configuration not stated) |
| 158 to 160 °C | Cc1ccc(C(C#N)Nc2ccc(S(C)(=O)=O)cc2)cc1 (configuration not stated) |
| 148 to 150 °C | Cc1cc([N+](=O)[O-])cc(C)c1Oc1ccc(O)c(C(=O)c2ccc(F)cc2)c1 |
| 189 to 191 °C | NC(=O)N1C(=O)Cc2cc(N)ccc21 |
| 257 to 258 °C | Cn1nccc1-c1ccc(-c2cnc3[nH]cc(C(=O)C(C)(C)C)c3n2)cc1 |
| 228 to 230 °C | N#Cc1cccc(-c2cnc3[nH]c(=O)n(CC4CCCCC4)c3n2)c1 |
| 161 to 163 °C | OCC(O)CNC(c1ccccc1)C(O)c1ccccc1 (configuration not stated) |
| 142 to 144 °C | C=CCn1c(=O)c2ccccc2n2c(CCCl)nnc12 |
| 79 to 81 °C | N[C@H]1CCN(C(=O)c2cc(C(F)(F)F)cc(C(F)(F)F)c2)[C@H](Cc2ccc(Cl)cc2)C1 |
| 98 to 99 °C | COC(=O)c1cccc2c1CC(C)(C)CC2N(C)S(C)(=O)=O (configuration not stated) |
| 145 to 147 °C | COc1ccc2c(n1)C1(CO2)C(=O)N(Cc2ccc(C(F)(F)F)o2)c2ccccc21 (configuration not stated) |
| 122 to 125 °C | COc1cc(Cl)c2c(=O)c(N3CCCCC3)coc2c1 |
| 212 to 214 °C | CC(C)COC(=O)Nc1ccc(C2=CCS(=O)CC2)c(F)c1 (configuration not stated) |
| 120 to 121 °C | O=C1C2=C(C(=O)N1CCO)c1ccccc1CC2 |
| 162 °C | Fc1ccc2c(N3CCN(Cc4ccccc4)CC3)n[nH]c2c1 |
| 245 to 248 °C | CCOc1cc2c(Nc3cc(OC)c(Cl)cc3Cl)c(C#N)cnc2cc1NC(C)=O |

| melting point | Structure (SMILES) |
| --- | --- |
| 208 to 209 °C | Cn1c(-c2ccc([N+](=O)[O-])cc2)nc2ccccc21 |
| 279 to 281 °C | COc1cccc(CNC(=O)c2cc3c(s2)N(C)CNC3)c1 |
| 183 to 185 °C | C[C@]12CCC(=O)N[C@@H]1CCc1cc(Sc3ccccc3)ccc12 |
| 135 to 138 °C | CSc1ccc(C2=CC(=O)C3(CCOCC3)O2)cc1 |
| 124 to 127 °C | CCCn1ncc2c(=O)[nH]c(-c3cc(C(=O)N4CCN(C)CC4)ccc3OCC)nc21 |
| 183 to 185 °C | CC(=O)c1ccc(-n2sc3ccccc3c2=O)cc1 |
| 200 °C | CN(C)c1ccc([N+](=O)[O-])c(C(=O)NCC2CCN(C(c3ccccc3)c3ccccc3)CC2)c1 |
| 108 °C | O=[N+]([O-])c1cccc2c(OS(=O)(=O)C(F)(F)F)ccnc12 |
| 228 to 230 °C | COc1ccccc1-c1coc2cc(O)c(Cl)cc2c1=O |
| 142 to 144 °C | COc1ccc(C2=NN(C3CCCC3)C(=O)[C@H]3CC=CC[C@@H]23)cc1O (relative stereo) |
| 64 to 65 °C | O=C(CCC(F)(F)Cl)Nc1ccccn1 |
| 56 to 57 °C | O=C(OCc1ccc(OCCCCCCc2ccc(Cl)cc2)cc1)c1cccnc1 |
| 135 °C | CSc1ccc(-c2nn(CC3CC3)c(=S)cc2-c2ccc(Cl)cc2)cc1 |
| 75 °C | CCOC(=O)c1nc2ccc(OC)cc2nc1Cl |
| 152 °C | O=C1OC2(c3ccccc3)CCCN2c2ccccc21 (configuration not stated) |
| 132 °C | COc1ccc([C@]2(C)CNC(=O)O2)cc1OC1CCC1 |
| 155 to 157 °C | c1ccc(CNCc2n[nH]c(-c3ccc(CN4CCCCCC4)s3)n2)cc1 |
| 78 to 81 °C | CNC[C@@H](O)c1cnccn1 |
| 45 to 48 °C | CCN(CC)C(=O)c1ccoc1-c1ccc(C(F)(F)F)cc1 |
| 145 to 146 °C | CCOC(=O)CCc1cn(Cc2ccc(OCc3nc(-c4ccco4)oc3C)cc2)nc1O |
| 146 to 150 °C | COc1ccc(S(=O)(=O)c2c(Br)cc(CC(=O)O)cc2Br)cc1C1CCCCC1 |
| 173 to 175 °C | NC(=NCC(F)(F)F)Nc1nc(CCCCNc2ncccn2)cs1 |
| 120 to 122 °C | COC(=O)C(=O)c1cn2c3c(cccc13)C(Br)CC2 (configuration not stated) |
| 156 to 158 °C | CC(C)(C)N1C(=O)C2Cc3[nH]cnc3CN2C1=O (configuration not stated) |

| melting point | Structure (SMILES) |
| --- | --- |
| 194 to 198 °C | COc1ccc(-c2ccc(C(=O)Nc3cc4ncc(CN5CCCC5)cc4cc3C)cc2)cc1 |
| 121 to 124 °C | CCCc1c(OCCCCCCC2CC(=O)c3ccc(OCC(=O)OC)c(CCC)c3O2)ccc(C(C)=O)c1O (configuration not stated) |
| 98 °C | CCN(CC1CCCC1)c1nc2ccccc2cc1CN(Cc1cc(C(F)(F)F)cc(C(F)(F)F)c1)C(N)=S |
| 231 to 232 °C | N#CCn1c2ccccc2c2nc3ccccc3nc21 |
| 172 to 173 °C | CC(C)(C)c1cc2c(c(C(=O)Nc3ccc(S(=O)(=O)C(F)(F)F)cc3Cl)c1O)CCC2 |
| 132 to 133 °C | Cn1c(CC#N)ccc1C(=O)c1cccs1 |
| 160 to 162 °C | Nc1cccc(-c2ccc(CCN3CCN(C(=O)Nc4ccc(Cl)cc4)CC3)cc2)n1 |
| 146 to 149 °C | CC(=O)NCCC1CCc2ccc3nn(C)c(C)c3c21 (configuration not stated) |
| 182 °C | CC1(C)Oc2ccc(C#N)cc2[C@@H](NC2=CC(=O)OC2)[C@@H]1O (relative stereo) |
| > 200 °C | Cc1ccc(-c2[nH]c(-c3cccnc3)nc2C(=O)Nc2nccs2)cc1 |
| 115 to 117 °C | Cc1ccccc1Oc1cccc2c1OC(=O)C2(C)C |
| 199 to 202 °C | O=C1CN2Cc3ccccc3-c3cccc1c32 |
| 111 °C | CCC1(Cl)Cc2cc(OCC(=O)OC)c(Cl)c(Cl)c2C1=O (configuration not stated) |
| 139 to 140 °C | Cc1cc(C(=O)O)ccc1C1=CCC2CC1C2(C)C (configuration not stated) |
| 105 to 107 °C | c1ccc(-c2nc3ccccc3n2-c2ccccc2)cc1 |
| 185 to 198 °C | Cc1cc(C)c(C)c(-c2cc3cnc(NCCCN4CCN(C)CC4)nc3nc2NC(=O)NC(C)(C)C)c1C |
| 118 to 119 °C | Nc1cc(F)c(C2CCSCC2)c(F)c1 |
| 89 to 90 °C | CC(Oc1ccc(F)cc1F)(C(=O)Nc1nccs1)c1ccc(S(C)(=O)=O)cc1 (configuration not stated) |
| 121 to 124 °C | CCOC1CC(n2cc(CC)c(=O)[nH]c2=O)OC1CNC(=O)C(C)Oc1ccc(Cl)cc1Cl (mixture of isomers) |
| 168 to 170 °C | CCOc1ncnc2c(N3CCOCC3)nc(N3CCNCC3)nc12 |
| 201 to 203 °C | O=C(O)CCNC(=O)c1ccccc1SSc1ccccc1C(=O)NCCC(=O)O |
| 239 °C | CN(Cc1ccc(-c2ccc(OCc3nnn[nH]3)c(Br)c2)cc1)C(=O)c1cn(C)c2ccccc12 |

| Structure (SMILES) | melting point |
| --- | --- |
| Clc1ccc(C2CCNCC2)cc1 | 143 °C |
| CCCCCC(=O)N(CO)C1N=C(c2ccccc2)c2ccccc2N(C)C1=O (single isomer, unassigned; (+)) | 154 to 156 °C |
| COc1ccc2c3c1OC1C[C@@H](O)C=CC31CCN(C(=O)NC(C)C)C2 (some centres not stated) | 106 to 108 °C |
